{
  "source": "patent US12708630B2",
  "about": "“Combined therapy of 4′-thio-5-aza-2′-deoxycytidine and Venetoclax” (PINOTBIO, INC., priority 2021, dated 2026)",
  "key": {"[1]": {"system": "22Rv1", "test": "drug activity profiling cytotoxicity", "format": "cell-based", "conditions": "Homo sapiens; 22Rv1 cell line, Prostate; read-out: Aza-T-dCyd IC50", "procedure": "(§1) To obtain a biomarker for Aza-T-dCyd, drug activity profiling analysis was performed to evaluate the cytotoxicity of 200 cell lines.\n(§2) The drug responsiveness analysis of Aza-T-dCyd through drug activity profiling and genomic analysis of 200 cell lines confirmed the potent efficacy of Aza-T-dCyd in various solid tumors (Table 2)."}, "[2]": {"system": "A375", "test": "drug activity profiling cytotoxicity", "format": "cell-based", "conditions": "Homo sapiens, A-375; A375 cell line, Skin (Melanoma); read-out: Aza-T-dCyd IC50", "procedure": "as §1, §2"}, "[3]": {"system": "AGS", "test": "drug activity profiling cytotoxicity", "format": "cell-based", "conditions": "Homo sapiens; AGS cell line, Stomach; read-out: Aza-T-dCyd IC50", "procedure": "as §1, §2"}, "[4]": {"system": "BFTC-905", "test": "drug activity profiling cytotoxicity", "format": "cell-based", "conditions": "Homo sapiens; BFTC-905 cell line, Bladder; read-out: Aza-T-dCyd IC50", "procedure": "as §1, §2"}, "[5]": {"system": "BHT-101", "test": "drug activity profiling cytotoxicity", "format": "cell-based", "conditions": "Homo sapiens; BHT-101 cell line, Endocrine (Thyroid); read-out: Aza-T-dCyd IC50", "procedure": "as §1, §2"}, "[6]": {"system": "CA46", "test": "drug activity profiling cytotoxicity", "format": "cell-based", "conditions": "Homo sapiens; CA46 cell line, Burkitt's lymphoma; read-out: Aza-T-dCyd IC50", "procedure": "as §1, §2"}, "[7]": {"system": "Calu6", "test": "drug activity profiling cytotoxicity", "format": "cell-based", "conditions": "Homo sapiens, Calu-6; Calu6 cell line, Lung (NSCLC); read-out: Aza-T-dCyd IC50", "procedure": "as §1, §2"}, "[8]": {"system": "DMS53", "test": "drug activity profiling cytotoxicity", "format": "cell-based", "conditions": "Homo sapiens, DMS-53; DMS53 cell line, Lung (SCLC); read-out: Aza-T-dCyd IC50", "procedure": "as §1, §2"}, "[9]": {"system": "Daoy", "test": "drug activity profiling cytotoxicity", "format": "cell-based", "conditions": "Homo sapiens; Daoy cell line, CNS (Medulloblastoma); read-out: Aza-T-dCyd IC50", "procedure": "as §1, §2"}, "[10]": {"system": "Detroit 562", "test": "drug activity profiling cytotoxicity", "format": "cell-based", "conditions": "Homo sapiens; Detroit 562 cell line, Head and Neck; read-out: Aza-T-dCyd IC50", "procedure": "as §1, §2"}, "[11]": {"system": "EB2", "test": "drug activity profiling cytotoxicity", "format": "cell-based", "conditions": "Homo sapiens; EB2 cell line, Burkitt's lymphoma; read-out: Aza-T-dCyd IC50", "procedure": "as §1, §2"}, "[12]": {"system": "HL-60", "test": "drug activity profiling cytotoxicity", "format": "cell-based", "conditions": "Homo sapiens; HL-60 cell line, AML; read-out: Aza-T-dCyd IC50", "procedure": "as §1, §2"}, "[13]": {"system": "HT-3", "test": "drug activity profiling cytotoxicity", "format": "cell-based", "conditions": "Homo sapiens; HT-3 cell line, Female GU (Cervix); read-out: Aza-T-dCyd IC50", "procedure": "as §1, §2"}, "[14]": {"system": "J82", "test": "drug activity profiling cytotoxicity", "format": "cell-based", "conditions": "Homo sapiens; J82 cell line, Bladder; read-out: Aza-T-dCyd IC50", "procedure": "as §1, §2"}, "[15]": {"system": "LS-174T", "test": "drug activity profiling cytotoxicity", "format": "cell-based", "conditions": "Homo sapiens, LS174T; LS-174T cell line, Colon; read-out: Aza-T-dCyd IC50", "procedure": "as §1, §2"}, "[16]": {"system": "MS751", "test": "drug activity profiling cytotoxicity", "format": "cell-based", "conditions": "MS751 cell line, Female GU (Cervix); read-out: Aza-T-dCyd IC50", "procedure": "as §1, §2"}, "[17]": {"system": "Mia PaCa-2", "test": "drug activity profiling cytotoxicity", "format": "cell-based", "conditions": "Homo sapiens; Mia PaCa-2 cell line, Pancreas; read-out: Aza-T-dCyd IC50", "procedure": "as §1, §2"}, "[18]": {"system": "NAMALWA", "test": "drug activity profiling cytotoxicity", "format": "cell-based", "conditions": "NAMALWA cell line, Burkitt's lymphoma; read-out: Aza-T-dCyd IC50", "procedure": "as §1, §2"}, "[19]": {"system": "NCI-H292", "test": "drug activity profiling cytotoxicity", "format": "cell-based", "conditions": "Homo sapiens; NCI-H292 cell line, Lung (NSCLC); read-out: Aza-T-dCyd IC50", "procedure": "as §1, §2"}, "[20]": {"system": "NCI-H747", "test": "drug activity profiling cytotoxicity", "format": "cell-based", "conditions": "Homo sapiens; NCI-H747 cell line, Colon; read-out: Aza-T-dCyd IC50", "procedure": "as §1, §2"}, "[21]": {"system": "NU-DUL-1", "test": "drug activity profiling cytotoxicity", "format": "cell-based", "conditions": "Homo sapiens; NU-DUL-1 cell line, B-cell lymphoma; read-out: Aza-T-dCyd IC50", "procedure": "as §1, §2"}, "[22]": {"system": "OVCAR3", "test": "drug activity profiling cytotoxicity", "format": "cell-based", "conditions": "Homo sapiens, OVCAR-3; OVCAR3 cell line, Female GU (Ovary); read-out: Aza-T-dCyd IC50", "procedure": "as §1, §2"}, "[23]": {"system": "SKOV3", "test": "drug activity profiling cytotoxicity", "format": "cell-based", "conditions": "Homo sapiens, SK-OV-3; SKOV3 cell line, Female GU (Ovary); read-out: Aza-T-dCyd IC50", "procedure": "as §1, §2"}, "[24]": {"system": "SW837", "test": "drug activity profiling cytotoxicity", "format": "cell-based", "conditions": "Homo sapiens; SW837 cell line, Colon; read-out: Aza-T-dCyd IC50", "procedure": "as §1, §2"}, "[25]": {"system": "TF-1", "test": "drug activity profiling cytotoxicity", "format": "cell-based", "conditions": "Homo sapiens; TF-1 cell line, Erythroleukemia; read-out: Aza-T-dCyd IC50", "procedure": "as §1, §2"}, "[26]": {"system": "VA-ES-BJ", "test": "drug activity profiling cytotoxicity", "format": "cell-based", "conditions": "VA-ES-BJ cell line, Sarcoma; read-out: Aza-T-dCyd IC50", "procedure": "as §1, §2"}, "[27]": {"system": "DNA methylation", "test": "DNA demethylation", "format": "cell-based", "source_text": "Through DNA demethylation caused by Aza-T-dCyd treatment, various tumor suppressor genes and genes required for differentiation induction of AML cells were reactivated, and the reactivated expression patterns of these genes were confirmed by RNA-seq data analysis (FIG. 24)."}, "[28]": {"system": "ALL-Patient Derived Xenografts", "test": "ALL-Patient Derived Xenografts (PDX)", "format": "in vivo", "conditions": "doses tolerated up to 1.5 mg/kg (0.5, 1, 1.5, 2 mg/kg tested)", "procedure": "To determine the efficacy of Aza-T-dCyd in another indication, T-ALL, we evaluated the efficacy of Aza-T-dCyd in a patient-derived ALL animal model.\nAza-T-dCyd was administered at doses of 0.5, 1, 1.5, and 2 mg/kg in ALL-Patient Derived Xenografts (PDX), with T-dCyd (DNMT1 inhibitor) used as a comparative control."}},
  "note": "pIC50: −log10 of the molar value.",
  "data": [
    {"smiles": "Nc1ncn([C@H]2CC(O)[C@@H](CO)S2)c(=O)n1", "note": "(some centres unmarked) [Aza-T-dCyd, 4′-thio-5-aza-2′-deoxycytidine]", "values": [
      {"measurement": "pIC50", "setting": "[1]", "value": 5.57},
      {"measurement": "pIC50", "setting": "[2]", "value": 7.18},
      {"measurement": "pIC50", "setting": "[3]", "value": 7.23},
      {"measurement": "pIC50", "setting": "[4]", "value": 6.92},
      {"measurement": "pIC50", "setting": "[5]", "value": 6.63},
      {"measurement": "pIC50", "setting": "[6]", "value": 7.59},
      {"measurement": "pIC50", "setting": "[7]", "value": 6.54},
      {"measurement": "pIC50", "setting": "[8]", "value": 5.37},
      {"measurement": "pIC50", "setting": "[9]", "value": 5.44},
      {"measurement": "pIC50", "setting": "[10]", "value": 7.09},
      {"measurement": "pIC50", "setting": "[11]", "value": 5.09},
      {"measurement": "pIC50", "setting": "[12]", "value": 6.29},
      {"measurement": "pIC50", "setting": "[13]", "value": 6.09},
      {"measurement": "pIC50", "setting": "[14]", "value": 5.70},
      {"measurement": "pIC50", "setting": "[15]", "value": "< 5.00"},
      {"measurement": "pIC50", "setting": "[16]", "value": "< 5.00"},
      {"measurement": "pIC50", "setting": "[17]", "value": 6.06},
      {"measurement": "pIC50", "setting": "[18]", "value": 7.96},
      {"measurement": "pIC50", "setting": "[19]", "value": 6.71},
      {"measurement": "pIC50", "setting": "[20]", "value": 6.50},
      {"measurement": "pIC50", "setting": "[21]", "value": 7.61},
      {"measurement": "pIC50", "setting": "[22]", "value": 5.46},
      {"measurement": "pIC50", "setting": "[23]", "value": 5.53},
      {"measurement": "pIC50", "setting": "[24]", "value": 6.45},
      {"measurement": "pIC50", "setting": "[25]", "value": 6.13},
      {"measurement": "pIC50", "setting": "[26]", "value": 6.62},
      {"measurement": "overall DNA methylation levels", "setting": "[27]", "value": "decrease in overall DNA methylation levels"},
      {"measurement": "pattern of DNA demethylation", "setting": "[27]", "value": "biased and selective demethylation"},
      {"measurement": "efficacy in pediatric ALL PDX", "setting": "[28]", "value": "highly effective"}
    ]}
  ]
}
